Article PMC9768162, “Synthesis of macrocyclic nucleoside antibacterials and their interactions with MraY” (Nature Communications, 2022)
Like-named read-outs stand apart in the source and are kept apart here.

Legend:
Test in all cases: Antibacterial activity, MIC by microdilution broth method (CLSI)
E. faecalis = type: cell-based; settings: for MIC: Enterococcus faecalis; for MIC (range over strains): clinically isolated E. faecalis (15 strains)
E. faecium = type: cell-based, Enterococcus faecium
S. aureus = type: cell-based, Staphylococcus aureus; settings: for MIC: Staphylococcus aureus; for MIC (range over strains): clinically isolated MRSA (10 strains)
[1] = ATCC 51299 / VRE, E. faecalis (VRE) ATCC 51299
[2] = clinically isolated E. faecalis strain 21
[3] = clinically isolated E. faecalis strain 22
[4] = clinically isolated E. faecalis strain 23
[5] = clinically isolated E. faecalis strain 24
[6] = clinically isolated E. faecalis strain 25
[7] = clinically isolated E. faecalis strain 26
[8] = clinically isolated E. faecalis strain 27
[9] = clinically isolated E. faecalis strain 28
[10] = clinically isolated E. faecalis strain 29
[11] = clinically isolated E. faecalis strain 30
[12] = clinically isolated E. faecalis strain 31
[13] = clinically isolated E. faecalis strain 32
[14] = clinically isolated E. faecalis strain 33
[15] = clinically isolated E. faecalis strain 34
[16] = clinically isolated E. faecalis strain 35
[17] = Enterococcus faecium, ATCC35667, 20 h, E. faecium ATCC 35667, CA-MHB, 37 °C, 20 h, read-out: MIC
[18] = Enterococcus faecium, clinically isolated E. faecium strain 7, read-out: MIC
[19] = ATCC29213, 20 h, S. aureus ATCC 29213, CA-MHB, 37 °C, 20 h
[20] = MRSA, 20 h, S. aureus (MRSA) JE2, CA-MHB, 37 °C, performed once
[21] = MRSA, clinically isolated MRSA #1958
[22] = MRSA, clinically isolated MRSA #2071
[23] = MRSA, clinically isolated MRSA #2110
[24] = MRSA, clinically isolated MRSA #2310
[25] = MRSA, clinically isolated MRSA #2334
[26] = MRSA, clinically isolated MRSA #2931
[27] = MRSA, clinically isolated MRSA #2932
[28] = MRSA, clinically isolated MRSA #2933
[29] = MRSA, clinically isolated MRSA #2934
[30] = MRSA, clinically isolated MRSA #2935
[31] = Enterococcus faecium, ATCC 51559 / VRE, E. faecium (VRE) ATCC 51559, read-out: MIC
[32] = Enterococcus faecium, ATCC 51858 / VRE, E. faecium (VRE) ATCC 51858, read-out: MIC
[33] = Enterococcus faecium, clinically isolated E. faecium strain 1, read-out: MIC
[34] = Enterococcus faecium, clinically isolated E. faecium strain 2, read-out: MIC
[35] = Enterococcus faecium, clinically isolated E. faecium strain 3, read-out: MIC
[36] = Enterococcus faecium, clinically isolated E. faecium strain 4, read-out: MIC
[37] = Enterococcus faecium, clinically isolated E. faecium strain 5, read-out: MIC
[38] = Enterococcus faecium, clinically isolated E. faecium strain 8, read-out: MIC
[39] = Enterococcus faecium, clinically isolated E. faecium strain 9, read-out: MIC
[40] = Enterococcus faecium, clinically isolated E. faecium strain 10, read-out: MIC
[41] = Enterococcus faecium, clinically isolated E. faecium strain 11, read-out: MIC
[42] = Enterococcus faecium, clinically isolated E. faecium strain 13, read-out: MIC
[43] = Enterococcus faecium, clinically isolated E. faecium strain 14, read-out: MIC
[44] = Enterococcus faecium, clinically isolated E. faecium strain 15, read-out: MIC

CC1(C)S[C@@H]2[C@H](NC(=O)[C@H](N)c3ccccc3)C(=O)N2[C@H]1C(=O)O [Ampicillin]
128 µg/mL: MIC (E. faecium; Enterococcus faecium, ATCC 51559 / VRE, E. faecium (VRE) ATCC 51559) | MIC (E. faecium; Enterococcus faecium, ATCC 51858 / VRE, E. faecium (VRE) ATCC 51858) | MIC (E. faecium; Enterococcus faecium, clinically isolated E. faecium strain 2) | MIC (E. faecium; Enterococcus faecium, clinically isolated E. faecium strain 4) | MIC (E. faecium; Enterococcus faecium, clinically isolated E. faecium strain 5) | MIC (E. faecium; Enterococcus faecium, clinically isolated E. faecium strain 8) | MIC (E. faecium; Enterococcus faecium, clinically isolated E. faecium strain 11) | MIC (E. faecium; Enterococcus faecium, clinically isolated E. faecium strain 14) | MIC (E. faecium; Enterococcus faecium, clinically isolated E. faecium strain 15)
16 µg/mL: MIC (S. aureus; [23]) | MIC (S. aureus; [25]) | MIC (S. aureus; [29]) | MIC (S. aureus; [30])
32 µg/mL: MIC (S. aureus; [21]) | MIC (S. aureus; [22]) | MIC (S. aureus; [24]) | MIC (S. aureus; [26]) | MIC (S. aureus; [27]) | MIC (S. aureus; [28])
> 128 µg/mL: MIC (E. faecium; Enterococcus faecium, clinically isolated E. faecium strain 1) | MIC (E. faecium; Enterococcus faecium, clinically isolated E. faecium strain 3) | MIC (E. faecium; Enterococcus faecium, clinically isolated E. faecium strain 9) | MIC (E. faecium; Enterococcus faecium, clinically isolated E. faecium strain 10) | MIC (E. faecium; Enterococcus faecium, clinically isolated E. faecium strain 13)
0.5 µg/mL: MIC (E. faecalis; [5]) | MIC (E. faecalis; [11]) | MIC (E. faecalis; [16]) | MIC (E. faecium; [18])
4 µg/mL: MIC (S. aureus; [20])
16 to 32 µg/mL: MIC (range over strains) (S. aureus)
0.5 to 1 µg/mL: MIC (range over strains) (E. faecalis)
1 µg/mL: MIC (E. faecalis; [1]) | MIC (E. faecalis; [2]) | MIC (E. faecalis; [3]) | MIC (E. faecalis; [4]) | MIC (E. faecalis; [6]) | MIC (E. faecalis; [7]) | MIC (E. faecalis; [8]) | MIC (E. faecalis; [9]) | MIC (E. faecalis; [10]) | MIC (E. faecalis; [12]) | MIC (E. faecalis; [13]) | MIC (E. faecalis; [14]) | MIC (E. faecalis; [15]) | MIC (E. faecium; [17]) | MIC (S. aureus; [19])

C[C@H]1COc2c(N3CCN(C)CC3)c(F)cc3c(=O)c(C(=O)O)cn1c23 [Levofloxacin]
0.13 µg/mL: MIC (S. aureus; [19]) | MIC (S. aureus; [22])
8 µg/mL: MIC (S. aureus; [20])
0.5 µg/mL: MIC (E. faecalis; [2]) | MIC (E. faecalis; [6]) | MIC (E. faecalis; [7]) | MIC (E. faecalis; [10]) | MIC (E. faecium; [18])
2 µg/mL: MIC (E. faecalis; [16])
16 µg/mL: MIC (E. faecium; [31]) | MIC (S. aureus; [26])
> 32 µg/mL: MIC (E. faecium; [33]) | MIC (E. faecium; [34]) | MIC (E. faecium; [35]) | MIC (E. faecium; [36]) | MIC (E. faecium; [38]) | MIC (E. faecium; [39]) | MIC (E. faecium; [40]) | MIC (E. faecium; [41]) | MIC (E. faecium; [42]) | MIC (E. faecium; [43]) | MIC (E. faecium; [44]) | MIC (S. aureus; [21]) | MIC (S. aureus; [23]) | MIC (S. aureus; [24]) | MIC (S. aureus; [25]) | MIC (S. aureus; [27]) | MIC (S. aureus; [28]) | MIC (S. aureus; [29]) | MIC (S. aureus; [30])
4 µg/mL: MIC (E. faecium; [17]) | MIC (E. faecium; [32])
1 µg/mL: MIC (E. faecalis; [1]) | MIC (E. faecalis; [3]) | MIC (E. faecalis; [4]) | MIC (E. faecalis; [5]) | MIC (E. faecalis; [8]) | MIC (E. faecalis; [9]) | MIC (E. faecalis; [11]) | MIC (E. faecalis; [12]) | MIC (E. faecalis; [13]) | MIC (E. faecalis; [14]) | MIC (E. faecalis; [15])
32 µg/mL: MIC (E. faecium; [37])
0.5 to 2 µg/mL: MIC (range over strains) (E. faecalis)

CN[C@H](CC(C)C)C(=O)N[C@H]1C(=O)N[C@@H](CC(N)=O)C(=O)N[C@H]2C(=O)N[C@H]3C(=O)N[C@H](C(=O)N[C@H](C(=O)O)c4cc(O)cc(O)c4-c4cc3ccc4O)[C@H](O)c3ccc(c(Cl)c3)Oc3cc2cc(c3O[C@@H]2O[C@H](CO)[C@@H](O)[C@H](O)[C@H]2O[C@H]2C[C@](C)(N)[C@H](O)[C@H](C)O2)Oc2ccc(cc2Cl)[C@H]1O [Vancomycin]
4 µg/mL: MIC (E. faecalis; [12])
> 128 µg/mL: MIC (E. faecium; [31])
2 µg/mL: MIC (E. faecalis; [14]) | MIC (S. aureus; [23]) | MIC (S. aureus; [24]) | MIC (S. aureus; [25]) | MIC (S. aureus; [27]) | MIC (S. aureus; [30])
0.5 to 1 µg/mL: MIC (range over strains) (E. faecium; clinically isolated E. faecium (14 strains))
0.5 µg/mL: MIC (E. faecium; [17]) | MIC (E. faecium; [18]) | MIC (E. faecium; [43])
1 to 2 µg/mL: MIC (range over strains) (S. aureus)
>128 µg/mL: MIC (E. faecium; E. faecium (VRE) ATCC 51559)
128 µg/mL: MIC (E. faecalis; [1]) | MIC (E. faecium; [32])
1 to 4 µg/mL: MIC (range over strains) (E. faecalis)
1 µg/mL: MIC (E. faecalis; [2]) | MIC (E. faecalis; [3]) | MIC (E. faecalis; [4]) | MIC (E. faecalis; [5]) | MIC (E. faecalis; [6]) | MIC (E. faecalis; [7]) | MIC (E. faecalis; [8]) | MIC (E. faecalis; [9]) | MIC (E. faecalis; [10]) | MIC (E. faecalis; [11]) | MIC (E. faecalis; [13]) | MIC (E. faecalis; [15]) | MIC (E. faecalis; [16]) | MIC (E. faecium; [33]) | MIC (E. faecium; [34]) | MIC (E. faecium; [35]) | MIC (E. faecium; [36]) | MIC (E. faecium; [37]) | MIC (E. faecium; [38]) | MIC (E. faecium; [39]) | MIC (E. faecium; [40]) | MIC (E. faecium; [41]) | MIC (E. faecium; [42]) | MIC (E. faecium; [44]) | MIC (S. aureus; [19]) | MIC (S. aureus; [20]) | MIC (S. aureus; [21]) | MIC (S. aureus; [22]) | MIC (S. aureus; [26]) | MIC (S. aureus; [28]) | MIC (S. aureus; [29])
